# Results from a melting point compilation (Tetko et al.; mined from patent text by program, amines drawn as free bases though some values may be those of a salt).
row,SMILES,melting point
1,Cc1oc(-c2ccccc2)nc1CCSc1ccc(OC(C)(C)C(=O)O)cc1,104 to 106 °C
2,NC1=NS(=O)N=C1NCCCN(Cc1ccncc1)c1ccccn1 (stereo not given),103 to 110 °C
3,COC(=S)c1ccnc(C)n1,68 °C
4,O=C(O)c1ccc2nc3n(c(=O)c2c1)CCC3=Cc1ccccc1,285 to 287 °C
5,Cc1ccc(S(=O)(=O)OC(C)C(=O)N2CCOCC2)cc1 (stereo not given),75 to 77 °C
6,Cn1c(-c2ccc(-c3nccs3)cc2)cnc1[C@H](Cc1ccccn1)N(C=O)c1cc2cc(Cl)ccc2o1,144 to 146 °C
7,COC(=O)c1ccc(C(=O)NS(=O)(=O)c2ccccc2)cc1,267 to 270 °C
8,COc1ccc(OC2OC(COCc3ccccc3)C(OCc3ccccc3)C(O)C2OCc2ccccc2)cc1 (stereo not given),84 to 86 °C
9,CCOC(=O)c1coc(-c2ccc(Cn3cnc4ccccc43)cc2)n1,150 to 152 °C
10,O=c1cc(C(F)(F)F)nc[nH]1,157 °C
11,CC(=O)C1(COC(=O)Oc2ccccc2)CC2C=CC1CC2 (stereo not given),58 to 60 °C
12,CC(Oc1ccc(Oc2ccccc2)cc1)(C(=O)O)C(F)(F)F (stereo not given),111 to 112 °C
13,O=[N+]([O-])c1cnc(Sc2nccnc2Cl)s1,139 to 141 °C
14,NC(=O)CC[C@H](NCc1ccccc1C(=O)O)C(=O)O,132 to 133 °C
15,COc1ccc(-c2c(Cl)ncn2-c2ccc(S(C)(=O)=O)cc2)cc1,205 °C
16,O=C(Nc1ccccn1)c1cn(-c2ccccc2)c2ccccc2c1=O,238 to 240 °C
17,C=CCOc1ccc(OCCBr)cc1,27 to 28 °C
18,C=C(CO)COCCCCCCCCCCCCCCCC,34 °C
19,NS(=O)(=O)c1ccc(F)c(F)c1,89 to 91 °C
20,CC(C)N1C(=O)CCCc2cc(Nc3ncc(Cl)c(N[C@@H]4CCCC[C@H]4NS(C)(=O)=O)n3)ccc21,141 to 143 °C
21,N#Cc1ccc(C(=O)NCCC(=O)NC(CC(=O)OCc2ccccc2)C(=O)NC(Cc2ccccc2)C(=O)OCc2ccccc2)nc1 (stereo not given),157 to 158 °C
22,NCC1Cc2cc(-c3ccccc3)cc(-c3ccccc3F)c2O1 (stereo not given),> 250 °C
23,O=C(NCCO)c1cccc(-c2ccc3ccn(Cc4ccc(Cl)cc4Cl)c3n2)c1,161 to 162 °C
24,Cc1nc2ccccc2n2c(-c3cc(OCC(O)c4ccccn4)ccc3Cl)nnc12 (stereo not given),193 to 194 °C
25,O=C(O)C1=CSCCO1,144 °C

row,SMILES,melting point
1,CCc1ccc(-c2ccc(F)cc2)cc1,60 to 63 °C
2,CC(C)(O)Cn1c(CONS(C)(=O)=O)nc2c(N)nc3ccccc3c21,232 to 234 °C
3,CN1CCC(O)(c2csc3ccccc23)CC1,150 to 151 °C
4,CC[C@@H](Cc1ccc(OC)c(C(=O)NCc2ccccc2Oc2ccc(F)cc2)c1)C(=O)O,95 to 96 °C
5,CCOC(=O)CCc1cn(Cc2ccc(OCc3ccccc3)cc2)nc1OCc1ccc(OCc2ccccc2)cc1,98 to 99 °C
6,COc1cc(C(=O)CSC)ccc1OC(C)=O,70.4 °C
7,CON1CCC2(CC1)SC(=O)C(c1c(C)cc(C)cc1C)=C2O,67 to 71 °C
8,CCCCCCN(C)c1ccc(C=C2SC(=S)N(CCNC(=O)C(F)(F)F)C2=O)cc1,136 to 139 °C
9,c1ccc(Cc2cc3ccncc3[nH]2)cc1,142 to 146 °C
10,O=C(NCc1ccn(-c2cc3c(cc2[N+](=O)[O-])[nH]c(=O)c(=O)n3C2CCCCC2)c1)Nc1ccncc1,> 200 °C
11,NS(=O)(=O)c1ccc(-n2nc(C(F)(F)F)c(C3CC3)c2-c2ccccc2)cc1,173 to 174 °C
12,CCSC(N)=C(C#N)C(N)=S,200 to 201 °C
13,Cc1nc(-c2ccc(OC(C)C)cc2)sc1C(=O)O,186 to 188 °C
14,CC(C)CC(CO)(CO)CC(C)C,75 to 77 °C
15,Cc1nnc(-c2ccc3occ(-c4ccc(C(=O)N(C)C)c(F)c4)c3c2)o1,152 to 153 °C
16,N#CC(c1ccccn1)C1CCCCC1O (stereo not given),110 to 112 °C
17,CC1(C)CC(O)CC(C)(C)N1Cc1ccccc1,151 to 152 °C
18,Cc1c(C(=O)c2ccccc2Cl)c(NC(=O)CI)cn1C,155 to 157 °C
19,CCOP(=O)(CNCc1ccnc(-c2cc(C(C)(C)C)c(O)c(C(C)(C)C)c2)c1)OCC,66 to 69 °C
20,C=CCOC(=O)Cn1c(=O)n(S(=O)(=O)c2ccc(Cl)cc2)c(=O)c2ccccc21,164 to 166 °C
21,CC1=C2C(=O)N(O)C(=O)c3cccc(c32)C(=NO)C1O (stereo not given),302 to 304 °C
22,CCCCc1ccc(CC(=O)c2ccccc2)cc1,53 to 55 °C
23,O=C(O)c1ccc(-n2ccc3ccccc32)cc1,222 to 224 °C
24,Cn1nnnc1NCC(O)COc1cccc(CN2CCCCC2)c1 (stereo not given),156 to 157 °C
25,CCOC(=O)C1=C[C@@H](OC(CC)CC)[C@H](NC(C)=O)[C@@H](N=[N+]=[N-])C1,115 to 117 °C

row,SMILES,melting point
1,CC(C)(C)c1cc(CCc2cc(C(C)(C)C)c(O)c(C(C)(C)C)c2)cc(C(C)(C)C)c1O,170 to 171 °C
2,CCCCc1cc(C(=O)Nc2nnn[nH]2)nc(-c2ccc(N)cc2)c1,> 300 °C
3,CC1=Cc2cc3c(cc2C(c2ccc([N+](=O)[O-])c(C)c2)=NN1C(=O)NC1CC1)OCO3,198 to 202 °C
4,COC(=O)CCCCCCCCc1ccc(O)cc1,52 to 54 °C
5,CONS(=O)(=O)c1cc(Cl)c(Cl)cc1Cl,163 to 166 °C
6,CCN=c1[nH]c2ccccc2c2nc(-c3ccco3)nn12,133 to 135 °C
7,COc1cc(-c2nc(C)ncc2Br)c(F)cc1Cl,106 to 107 °C
8,O=C1[C@H]2CCC[C@H]2N(C(=O)CNS(=O)(=O)c2ccccc2)c2ccccc2N1Cc1ccccc1 (relative stereo),185 to 187 °C
9,C[C@@H](N(CC(=O)O)C(=O)c1ccc(OCC(F)(F)F)cc1)[C@](O)(Cn1cncn1)c1ccc(F)cc1F (relative stereo),168 to 177 °C
10,C=Cc1noc(C2=CCCN(C(=O)OC(C)(C)C)C2)n1,81 to 82 °C
11,CCCc1c(OCC(O)CSc2ccc(CC(=O)OC)c(Cl)c2Cl)ccc(C(C)=O)c1O (stereo not given),85 to 88 °C
12,CN1C(=O)C(c2cc[nH]c2)(c2cccc(OCc3ccccc3)c2)N=C1N (stereo not given),98 to 100 °C
13,O=C(O)c1ccc(C(=O)N2Cc3cccn3Cc3ccccc32)cc1,210 to 214 °C
14,CCCCCC=Cc1cccc2c(=O)[nH]c(-c3cc(S(=O)(=O)N4CCOCC4)ccc3OCCC)nc12,112 °C
15,CC(=O)c1ccc(OCCOc2ccc3ccccc3c2)cc1F,144 to 146 °C
16,O=[N+]([O-])c1cc(Cl)c(OCC(F)(F)C(F)(F)F)c(Cl)c1F,62 to 63 °C
17,CCn1cc(C(=O)O)c(=O)c2cc(F)c(F)c(C)c21,219 to 221 °C
18,CC(C)(C)OC(=O)N(CCCn1ncc2cc(C(=O)O)ccc21)c1ccccn1,129 to 131 °C
19,C[C@]12C[C@H](c3ccc(OCCCCCCCl)cc3)[C@@H]3c4ccc(O)cc4CC[C@H]3[C@@H]1CC[C@@H]2O,176 °C
20,CN(O)C(=O)CCc1ccc2c(c1)Cc1ccccc1CO2,120 to 122 °C
21,C[C@@H]1[C@@H](NS(=O)(=O)c2ccc(F)cc2)CN1C(c1ccc(Cl)cc1)c1ccc(Cl)cc1,154 to 157 °C
22,O=C1CCC(c2ccccc2)(c2ccccc2)C2CN(C(Cc3ccccc3)=NCc3ccco3)CC12 (stereo not given),128 °C
23,COc1cc2c(c(O)c1OC)C(Cc1ccc(F)cc1)NCC2 (stereo not given),195 to 200 °C
24,CC(=O)Nc1cnc(N2CCN(CCCC(=O)c3ccc(F)cc3)CC2)cc1NC(C)=O,206 to 209 °C
25,c1ccc2c(OCCNCCCc3c[nH]c4ccccc34)cccc2c1,119 to 120 °C

row,SMILES,melting point
1,COc1ccnc(-c2nc(=O)c3ccccc3s2)c1,214 to 215 °C
2,O=[N+]([O-])c1cc(C(F)F)cc2nc(C(F)(F)F)[nH]c12,132 to 134 °C
3,CC(C)(C)OC(=O)N1CCC(c2nc3cc(-c4ccc(S(C)(=O)=O)cc4F)ccc3o2)CC1,144 to 147 °C
4,CC(=O)c1nc(-c2ccccn2)[nH]c1C,145 to 147 °C
5,Cc1cc(O)n(-c2ccc(N3CCOCC3)nn2)n1,189 to 192 °C
6,CSc1nc(Cl)c(-c2c(F)cc(F)cc2F)c(NC(C)C)n1,112 to 116 °C
7,O=C1CCCC(=O)N1Nc1ccc([N+](=O)[O-])cc1,197 to 198 °C
8,COc1ccc(-c2ccnn2-c2ccc(N3C[C@H](CNC(C)=O)OC3=O)cc2F)cc1OC,154 to 156 °C
9,CCOC(=O)c1cnn(Cc2ccccc2)c1-c1ccccc1,78 to 79 °C
10,CCCCCCCCCCCCCCCc1ccc(CO)c(O)c1,94 to 95 °C
11,O=C1c2ccccc2-n2cnc(Cl)c2[C@@H]2CCN12,210 to 214 °C
12,CC(=O)Nc1ccc(SC(CCc2ccc(Cl)cc2)Cn2ccnc2)cc1 (stereo not given),166 °C
13,CCCCNc1nc2cccc(C(=O)OC)c2n1Cc1ccccc1-c1ccccc1-c1nnn[nH]1,216 to 218 °C
14,Nc1ccc(C=CC2CSC(=O)NN2)cc1 (stereo not given),188 to 196 °C
15,COC(=O)CC1Cc2ccc(OC)cc2NC1=O (stereo not given),152 to 155 °C
16,NCCc1ccc(-n2cnc3cnc4ccc(Cl)cc4c32)cc1,140 to 141 °C
17,Nc1n[nH]c2c1c1cc(Cl)c(Cl)cc1n2C1OC(CO)C(O)C1O (stereo not given),198 to 201 °C
18,O=C(O)Cc1ccc(NC(=O)C(COc2ccc(Cl)cc2)NS(=O)(=O)c2ccc(F)cc2)cc1 (racemic),184 to 186 °C
19,COc1nc(C)nc(NN)c1Cl,153 to 154 °C
20,Cc1nc(N2CCN(Cc3ccccc3)C2=O)sc1C(=O)NCc1cc(F)ccc1F,176 to 177 °C
21,CC1CCN(c2c(-c3c(F)cc(F)cc3F)c(Cl)nc3nc(S)nn23)CC1,194 °C
22,COC(=O)c1cc(-c2cccc(C(=O)O)c2)c2cc(Cc3ccc(F)cc3)cnc2c1O,265 to 267 °C
23,COc1ccc(C2=NN(C3CCN(S(=O)(=O)CCNCC(O)c4ccc(O)c(CO)c4)CC3)C(=O)[C@@H]3CC=CC[C@H]23)cc1OC (stereo not given in full),97 to 99 °C
24,COC(=O)CCCc1c(-c2ccc(F)cc2)[nH]c2ccc(-c3ccc(O)cc3)cc12,141 to 143 °C
25,CC(C)(O)C#Cc1ncn2c1[C@@H]1CCCN1C(=O)c1ccccc1-2,128 °C
